Key:
human NK1 receptor [1] = target: T1, human NK1 receptor (Homo sapiens, UniProt P25103); test: substance P induced Ca2+ influx in CHO cells expressing recombinant human NK1 receptor (FLIPR); format: cell-based; details: increasing concentrations, CHO cells with recombinant human NK1 receptor
T1 construct: expressed in transfected cells; host or cells: CHO cells (Semliki virus expression system)
Description: The activity in vitro was examined by studying its effect on substance P induced Ca^2+ influxes in CHO cells expressing the recombinant human NK1 receptor. In these cells, substance P causes a concentration dependent influx of Ca^2+ which can be measured using FLIPR technology.

human NK1 receptor [2] = target: T1, human NK1 receptor; test: [3H]substance P binding to human NK1 receptor in transfected CHO cells; details: recombinant human NK1 receptor in CHO cells, [3H]substance P 0.6 nM; read-out: affinity (pKi) for the human NK1 receptor (converted)
Protocol: The affinities of the compounds 2-(3,5-bis-trifluoromethyl-phenyl)-N-[6-(1,1-dioxo-1λ^6-thiomorpholin-4-yl)-4-o-tolyl-pyridin-3-yl]-N-methyl-isobutyramide and 2-(3,5-bis-trifluoromethyl-phenyl)-N-[6-(1,1-dioxo-1λ^6-thiomorpholin-4-yl)-4-(4-fluoro-2-methyl-phenyl)-pyridin-3-yl]-N-methyl-isobutyramide for the human NK1 receptor were evaluated in Chinese Hamster Ovary (CHO) cells transfected with the human NK1 receptor (using the Semliki Virus expression system) and radiolabelled with [^3H]substance P (final concentration 0.6 nM). Binding assays were performed in HEPES buffer (50 mM, pH 7.4) containing BSA (0.04%), leupeptin (8 μg/ml), MnCl2 (3 mM) and phosphoramidon (2 μM). Binding assays consisted of 250 μl of membrane suspension (1.25×10^5 cells/assay tube), […] of buffer of displacing agent and 125 μl of [^3H] substance P. Displacement curves were determined with at least seven concentrations of the compound. The assay tubes were incubated for 60 min at room temperature after which time the tube contents were rapidly filtered under vacuum through GF/C filters presoaked for 60 min with PEI (0.3%) with 2×2 ml washes of HEPES buffer (50 mM, pH 7.4). The radioactivity retained on the filters was measured by scintillation counting. All assays were performed in triplicate in at least 2 separate experiments. […]

[3] = pharmacokinetic parameters in dogs; details: dog, in vivo; for Vd: read-out: volume of distribution
Description: (§1) The pharmacokinetic parameters of both compounds have been evaluated in both rats and dogs.

[4] = pharmacokinetic parameters in rats; details: rat, in vivo; for bioavailability: po; for half-life: read-out: terminal half-life (converted); for Vd: read-out: volume of distribution
Description: as §1

NK1 receptor = target: T2, NK1 receptor (Meriones unguiculatus, UniProt Q5DUB1); test: foot-tapping behavior induced in Gerbils by i.c.v. injection of an NK1 receptor agonist; format: in vivo; details: Gerbil; for dose calculated to inhibit 50% of the foot-tapping behavior: oral administration; for total plasma concentration required to completely block the foot-tapping behavior: total plasma level
T2 construct: from tissue; host or cells: living gerbils (brain, i.c.v. agonist injection)
Protocol: In vivo 2-(3,5-bis-trifluoromethyl-phenyl)-N-[6-(1,1-dioxo-1λ^6-thiomorpholin-4-yl)-4-o-tolyl-pyridin-3-yl]-N-methyl-isobutyramide antagonizes foot-tapping behavior induced in Gerbils with intracerebroventricular (i.c.v.) injections of an NK1 receptor agonist. The dose for this compound calculated to inhibit 50% of the foot-tapping behavior following oral administration was 0.8 mg/kg. […] Similarly, 2-(3,5-bis-trifluoromethyl-phenyl)-N-[6-(1,1-dioxo-1λ^6-thiomorpholin-4-yl)-4-(4-fluoro-2-methyl-phenyl)-pyridin-3-yl]-N-methyl-isobutyramide also antagonized NK1 agonist-induced foot-tapping in Gerbils. The dose for this compound calculated to inhibit 50% of the foot-tapping behavior following oral administration was 0.1 mg/kg. The total plasma levels that are required to completely antagonize this behavior are less than 10 ng/ml.

T2 sequence (Q5DUB1 whole entry): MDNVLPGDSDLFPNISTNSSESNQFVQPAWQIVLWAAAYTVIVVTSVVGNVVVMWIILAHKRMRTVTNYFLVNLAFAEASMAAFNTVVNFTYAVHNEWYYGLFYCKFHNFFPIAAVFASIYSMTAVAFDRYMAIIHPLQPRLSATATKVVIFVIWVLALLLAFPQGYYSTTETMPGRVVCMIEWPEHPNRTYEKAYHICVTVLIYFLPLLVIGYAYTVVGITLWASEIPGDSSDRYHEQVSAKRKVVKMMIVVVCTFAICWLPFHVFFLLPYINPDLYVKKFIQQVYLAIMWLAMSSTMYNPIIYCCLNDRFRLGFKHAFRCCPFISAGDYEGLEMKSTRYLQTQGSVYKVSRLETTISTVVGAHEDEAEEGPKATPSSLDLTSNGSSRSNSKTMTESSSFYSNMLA
T1 sequence (P25103 whole entry): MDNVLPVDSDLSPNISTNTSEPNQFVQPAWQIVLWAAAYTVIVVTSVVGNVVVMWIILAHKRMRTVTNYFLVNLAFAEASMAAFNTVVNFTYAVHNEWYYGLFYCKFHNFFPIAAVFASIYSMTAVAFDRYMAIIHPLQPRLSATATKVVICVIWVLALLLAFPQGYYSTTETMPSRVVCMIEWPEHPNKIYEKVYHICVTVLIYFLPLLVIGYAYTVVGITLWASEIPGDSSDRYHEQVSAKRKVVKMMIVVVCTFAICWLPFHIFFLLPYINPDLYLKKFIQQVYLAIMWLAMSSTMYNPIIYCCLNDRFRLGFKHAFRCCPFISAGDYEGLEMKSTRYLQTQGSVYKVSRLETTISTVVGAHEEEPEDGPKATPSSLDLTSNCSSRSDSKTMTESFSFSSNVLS

SMILES	effect on substance P induced Ca2+ influx (human NK1 receptor [1])	Ki (human NK1 receptor [2])	clearance [3]	half-life [3]	Vd [3]	clearance [4]	bioavailability [4]	half-life [4]	Vd [4]	dose calculated to inhibit 50% of the foot-tapping behavior (NK1 receptor)	total plasma concentration required to completely block the foot-tapping behavior (NK1 receptor)	melting point
Cc1cc(F)ccc1-c1cc(N2CCS(=O)(=O)CC2)ncc1N(C)C(=O)C(C)(C)c1cc(C(F)(F)F)cc(C(F)(F)F)c1 [2-(3,5-Bis-trifluoromethyl-phenyl)-N-[6-(1,1-dioxo-1λ^6-thiomorpholin-4-yl)-4-(4-fluoro-2-methyl-phenyl)-pyridin-3-yl]-N-methyl-isobutyramide]	inhibited the substance P induced Ca^2+ influx	0.316 nM	1.4 mL/min/kg	56 h	1.5 L/kg	0.3 to 1.2 mL/min/kg	61%	21 h	0.7 L/kg	0.1 mg/kg	less than 10 ng/ml	
Cc1ccccc1-c1cc(N2CCS(=O)(=O)CC2)ncc1N(C)C(=O)C(C)(C)c1cc(C(F)(F)F)cc(C(F)(F)F)c1 [2-(3,5-Bis-trifluoromethyl-phenyl)-N-[6-(1,1-dioxo-1λ^6-thiomorpholin-4-yl)-4-o-tolyl-pyridin-3-yl]-N-methyl-isobutyramide]	inhibited the substance P induced Ca^2+ influx	1.26 nM	5 mL/min/kg	8 h	4 L/kg	4.7 mL/min/kg	18%	9 h	4 L/kg	0.8 mg/kg	10 ng/mL	200 to 201 °C

From patent US6849624B2, “Aromatic and heteroaromatic substituted amides” (Hoffmann-La Roche Inc., priority 2001, dated 2005)
